{
  "source": "patent US8404651B2",
  "about": "“Compositions and methods for treating viral infections” (priority 2008, dated 2013)",
  "key": {"[1]": {"test": "MTT cytotoxicity assay, MDBK", "format": "cell-based", "conditions": "cattle, MDBK cells, 24-hour incubation", "protocol": "(§1) Cellular cytotoxicity profile of the compounds was carried out against a panel of cell lines. Standard MTT assays were performed in 96-well plates using the Promega CellTiter96 Non-radioactive Cell Proliferation Assay Kit in conjunction with a 96-well Plate Reader (ThermoMax, Molecular devices), and MDBK, Vero, and HFF cell lines (obtained from ATCC). Several controls were employed including the nucleoside analogs 3TC, AZT, and ddC, as well as, media without drugs. SDS was used as a positive cytotoxic control. The compounds were tested in triplicate at concentrations of 100, 300, and 1000 μM. Following a 24-hour incubation of cells with the test substance, the MTT assay was carried out."}, "[2]": {"tested_on": "bacterial strains TA1535, TA1537, TA98, TA100, WP2 uvrA", "test": "In vitro bacterial mutagenicity assay, overall conclusions for all strains", "protocol": "(§2) Dispense 100 microliter aliquots of the appropriate bacterial cultures into sample tubes stored on ice. Dispense aliquots of the vehicle, positive controls or dose formulations into the appropriate sample tubes. 2 mL top Agar and HBT cap was added to the sample tube, inverted three times and poured into MG plate. The lid was replaced on the plate and left on a level surface to let the agar harden. The plates were incubated in an incubator for 48 to 72 h. The background lawn and count the number of revertants was checked for each plate."}, "[3]": {"test": "In vitro cytotoxicity, HepG2", "format": "cell-based", "conditions": "human, HepG2 cells"}, "[4]": {"tested_on": "replicon cell line containing H/FL-Neo (genotype 1a (H77), full length construct)", "test": "Secondary anti-HCV assay: genotype 1a replicon, format of the primary assay", "format": "cell-based", "conditions": "Hepatitis C virus", "text": "Res. 19:55; Okuse, et al., 2005, Antivir. Res. 65:23).\nSecondary anti-HCV assay—This assay assesses activity against different HCV genotypes using the format described for the primary assay. Activity against the genotype 1b HCV is included for comparison. Currently available is a replicon cell line containing H/FL-Neo (genotype 1a (H77), full length construct) (Blight, et al., 2003, J. Virol. 77:3181)."}, "[5]": {"tested_on": "TA100", "test": "In vitro bacterial mutagenicity assay (pre-incubation), strain TA100", "conditions": "for Number of revertants x1, x2, x3: individual plates", "protocol": "as §2"}, "[6]": {"tested_on": "TA1537", "test": "In vitro bacterial mutagenicity assay (pre-incubation), strain TA1537", "conditions": "for Number of revertants x1, x2, x3: individual plates", "protocol": "as §2"}, "[7]": {"tested_on": "HCV replicon cell line, AVA5", "test": "Cytotoxicity by neutral red dye uptake in replicon cultures in parallel plates", "conditions": "Table 5, Compound 2 alone or in combination, genotype 1B", "protocol": "(§3) Primary anti-HCV assay-Antiviral activity against HCV was assessed in a 3-day assay (Okuse, et al., 2005; Antiviral. Res. 65:23; Korba, et al., 2008, Antiviral Res. 77:56) using the stably-expressing HCV replicon cell line, AVA5 [sub-genomic (CON1), genotype 1b](Blight, et al., 2000, Science 290:1972) maintained as sub-confluent cultures on 96-well plates. Antiviral activity was determined by blot hybridization analysis of intracellular HCV RNA (normalized to the level of cellular B-actin RNA in each culture sample). Cytotoxicity was assessed by neutral red dye uptake in cultures maintained in parallel plates.\n(§4) EC50, EC90, and CC50 values were calculated by linear regression analysis (MS EXCEL®, QUATTROPRO®) using data combined from all treated cultures Korba & Gerin, 1992, Antivir. Res. 19:55; Okuse, et al., 2005, Antivir. Res. 65:23). Standard deviations for EC50 and EC90 values were calculated from the standard errors generated by the regression analyses. […] The Selectivity index (S.I.) was calculated as CC50/EC50. Recombinant human interferon 2b (PBL laboratories, Inc.) was used as an assay control.\n(§5) For each combination of agents, three concentration ratios, centered on the use of the compounds at equipotent antiviral concentrations, were used. A dilution series (six three-fold-concentration steps, beginning at the approximate EC90) was then generated with the concentration ratio of the two agents remaining the same in each dilution step. Toxicity analysis was performed as described above for the monotherapies. Analysis of drug interactions in the combination studies was determined by the use of the […] program (Biosoft, Inc., Cambridge, United Kingdom). This program evaluates synergy, additivity, or antagonism by use of several methodologies, including that of Chou and Talalay with a statistical analysis employing the Monte Carlo technique to provide confidence limits, fraction-affected-confidence interval (FA-CI) plots, isobolograms, and median-effect plots. (Belenkii, M. S. Schinazi, R. A method for the analysis of combination therapies with statistical analysis. Antiviral Res. 25, 11, 2005)."}, "[8]": {"test": "Cytotoxicity by neutral red dye uptake in replicon cultures in parallel plates", "conditions": "human", "protocol": "as §3, §4, §5"}, "[9]": {"test": "MTT cytotoxicity assay, Vero", "format": "cell-based", "conditions": "African green monkey, Vero cells, 24-hour incubation", "protocol": "as §1"}, "[10]": {"conditions": "TA100, absence of S9, 50 μg/plate"}, "[11]": {"conditions": "TA100, absence of S9, 158 μg/plate"}, "[12]": {"conditions": "TA100, absence of S9, 500 μg/plate"}, "[13]": {"conditions": "TA100, absence of S9, 1581 μg/plate"}, "[14]": {"conditions": "TA100, absence of S9, 5000 μg/plate"}, "[15]": {"conditions": "TA100, presence of S9, 50 μg/plate"}, "[16]": {"conditions": "TA100, presence of S9, 158 μg/plate"}, "[17]": {"conditions": "TA100, presence of S9, 500 μg/plate"}, "[18]": {"conditions": "TA100, presence of S9, 1581 μg/plate"}, "[19]": {"conditions": "TA100, presence of S9, 5000 μg/plate"}, "[20]": {"conditions": "TA1537, absence of S9, 50 μg/plate"}, "[21]": {"conditions": "TA1537, absence of S9, 158 μg/plate"}, "[22]": {"conditions": "TA1537, absence of S9, 500 μg/plate"}, "[23]": {"conditions": "TA1537, absence of S9, 1581 μg/plate"}, "[24]": {"conditions": "TA1537, absence of S9, 5000 μg/plate"}, "[25]": {"conditions": "TA1537, presence of S9, 50 μg/plate"}, "[26]": {"conditions": "TA1537, presence of S9, 158 μg/plate"}, "[27]": {"conditions": "TA1537, presence of S9, 500 μg/plate"}, "[28]": {"conditions": "TA1537, presence of S9, 1581 μg/plate"}, "[29]": {"conditions": "TA1537, presence of S9, 5000 μg/plate"}},
  "note": "Several values for one entry are separate records, joined by “and”; a condition that tells them apart may be missing. Identical values can stand only once.",
  "data": [
    {"smiles": "COC1C(OP(=O)(OC[C@H]2O[C@@H](n3cnc4c(N)ncnc43)CC2O)SCOC(=O)OC(C)C)[C@@H](CO)O[C@H]1n1ccc(=O)[nH]c1=O", "note": "(some centres unmarked) [Compound 2, S-isopropylcarbonyloxymethyl thiophosphate (6k) of 3′dApsU2′OMe]", "values": [
      {"measurement": "CC50 at 24 h", "setting": "[1]", "result": "> 1000", "unit": "µM"},
      {"measurement": "increases in the revertant colony counts", "setting": "[2]; any strain, absence or presence of S9 mix", "result": "No substantial increases in the revertant colony counts"},
      {"measurement": "precipitation in the bacterial mutation test", "setting": "[2]; formulated in DMSO, up to 5000 μg/plate", "result": "No precipitation was observed"},
      {"measurement": "toxicity to the bacteria (thinning of the background lawn of non-revertant bacteria)", "setting": "[2]; up to 5000 μg/plate", "result": "non-toxic to the bacteria at the levels tested"},
      {"measurement": "CC50", "setting": "[3]", "result": "> 100", "unit": "µM"},
      {"measurement": "EC50", "setting": "[4]; read-out: EC50 HCV Type 1A", "result": 2.2, "unit": "µM"},
      {"measurement": "EC90", "setting": "[4]; read-out: EC90 HCV type 1A", "result": 8, "unit": "µM"},
      {"measurement": "Number of revertants mean", "setting": "[5]; [10]", "result": 112},
      {"measurement": "Number of revertants x1, x2, x3", "setting": "[5]; [10]", "result": "98 and 112 and 127"},
      {"measurement": "Number of revertants mean", "setting": "[5]; [11]", "result": 121},
      {"measurement": "Number of revertants x1, x2, x3", "setting": "[5]; [11]", "result": "110 and 133 and 119"},
      {"measurement": "Number of revertants mean", "setting": "[5]; [12]", "result": 133},
      {"measurement": "Number of revertants x1, x2, x3", "setting": "[5]; [12]", "result": "134 and 127 and 138"},
      {"measurement": "Number of revertants mean", "setting": "[5]; [13]", "result": 113},
      {"measurement": "Number of revertants x1, x2, x3", "setting": "[5]; [13]", "result": "122 and 107 and 109"},
      {"measurement": "Number of revertants mean", "setting": "[5]; [14]", "result": 115},
      {"measurement": "Number of revertants x1, x2, x3", "setting": "[5]; [14]", "result": "98 and 126 and 122"},
      {"measurement": "Number of revertants mean", "setting": "[5]; [15]", "result": 107},
      {"measurement": "Number of revertants x1, x2, x3", "setting": "[5]; [15]", "result": "111 and 109 and 100"},
      {"measurement": "Number of revertants mean", "setting": "[5]; [16]", "result": 120},
      {"measurement": "Number of revertants x1, x2, x3", "setting": "[5]; [16]", "result": "115 and 133 and 111"},
      {"measurement": "Number of revertants mean", "setting": "[5]; [17]", "result": 126},
      {"measurement": "Number of revertants x1, x2, x3", "setting": "[5]; [17]", "result": "134 and 137 and 108"},
      {"measurement": "Number of revertants mean", "setting": "[5]; [18]", "result": 126},
      {"measurement": "Number of revertants x1, x2, x3", "setting": "[5]; [18]", "result": "136 and 122 and 121"},
      {"measurement": "Number of revertants mean", "setting": "[5]; [19]", "result": 126},
      {"measurement": "Number of revertants x1, x2, x3", "setting": "[5]; [19]", "result": "122 and 130 and 126"},
      {"measurement": "Number of revertants mean", "setting": "[6]; [20]", "result": 11},
      {"measurement": "Number of revertants x1, x2, x3", "setting": "[6]; [20]", "result": "8 and 17 and 9"},
      {"measurement": "Number of revertants mean", "setting": "[6]; [21]", "result": 12},
      {"measurement": "Number of revertants x1, x2, x3", "setting": "[6]; [21]", "result": "9 and 8 and 19"},
      {"measurement": "Number of revertants mean", "setting": "[6]; [22]", "result": 10},
      {"measurement": "Number of revertants x1, x2, x3", "setting": "[6]; [22]", "result": "15 and 6 and 10"},
      {"measurement": "Number of revertants mean", "setting": "[6]; [23]", "result": 15},
      {"measurement": "Number of revertants x1, x2, x3", "setting": "[6]; [23]", "result": "17 and 15 and 13"},
      {"measurement": "Number of revertants mean", "setting": "[6]; [24]", "result": 11},
      {"measurement": "Number of revertants x1, x2, x3", "setting": "[6]; [24]", "result": "15 and 9 and 8"},
      {"measurement": "Number of revertants mean", "setting": "[6]; [25]", "result": 17},
      {"measurement": "Number of revertants x1, x2, x3", "setting": "[6]; [25]", "result": "20 and 17 and 15"},
      {"measurement": "Number of revertants mean", "setting": "[6]; [26]", "result": 18},
      {"measurement": "Number of revertants x1, x2, x3", "setting": "[6]; [26]", "result": "16 and 18 and 21"},
      {"measurement": "Number of revertants mean", "setting": "[6]; [27]", "result": 17},
      {"measurement": "Number of revertants x1, x2, x3", "setting": "[6]; [27]", "result": "25 and 12 and 15"},
      {"measurement": "Number of revertants mean", "setting": "[6]; [28]", "result": 15},
      {"measurement": "Number of revertants x1, x2, x3", "setting": "[6]; [28]", "result": "18 and 15 and 13"},
      {"measurement": "Number of revertants mean", "setting": "[6]; [29]", "result": 12},
      {"measurement": "Number of revertants x1, x2, x3", "setting": "[6]; [29]", "result": "11 and 15 and 10"},
      {"measurement": "CC50", "setting": "[7]", "result": "> 100", "unit": "µM"},
      {"measurement": "CC50 at 3 day", "setting": "[8]", "result": "> 100", "unit": "µM"},
      {"measurement": "CC50 at 24 h", "setting": "[9]", "result": "> 1000", "unit": "µM"}
    ]}
  ]
}
